# From patent US5000936A, “Methods for locally-treating allergic disorders with pharmaceutical preparations containing N-acetyl-aspartyl glutamic acid or its salts” (THEA (Therapeutique et Applications) S.A., priority 1983, dated 1991)
# Structures can show the parent of a compound that is named as a salt. Where a SMILES comes first, the peptide text is derived from it.
# Experiments:
# [1] = system: ciliary movement; test: acute tolerance on ciliary movement, overall verdict; assay type: cell-based, guinea pigs or rabbits; settings: contact times which exceed 20 minutes
# From the text: The technique used has been described under the name of microphotooscillography (L. G. CHEVANCE, J. F. LENNON: Etude des rythmes du battement ciliare (Study of rhythms of ciliary beating) Acta Otolaryng., 1970-70, 16-28)). In this study, guinea pigs or rabbits were used which were free of all clinical sign of infection of the airways. The animals are sacrificed, and then the nasal septum or trachea is dissected out. These tissues are placed in PBS survival medium and the superficial epithelium is removed by scraping, over an area of about 1 mm^2. This sample, which contains numerous ciliated cells in movement, is placed in an observation chamber under a special microscope equipped with a microphotoelectric system permitting the recording of ciliary beats in transillumination.
# The measurement consists in recording the fluctuations in the light caused by the image, enlarged 500 times, of a cilium moving in front of the aperture of a diaphragm of suitable dimensions. After amplification, the fluctuations in light are recorded graphically.
# Impairments of ciliary movement are translated as a decrease in the frequency of the ciliary beats. […]
# [2] = metabolism after oral and parenteral administration (statement); assay type: in vivo; settings: oral and parenteral routes of administration
# [3] = system: sub-acute and chronic atopic conjunctivitis; test: clinical study in sub-acute and chronic atopic conjunctivitis (Example XII); assay type: in vivo; settings: 27 patients; at least one year on 2 % Cromoglycate, then two months 4 % NAAGA eye-drops four times daily
# Procedure: Twenty seven patients suffering from sub-acute and chronic atopic conjunctivitis who were treated for at least one year on 2 % Cromoglycate eye-drops, were switched from Cromoglycate treatment to 4 % NAAGA eye-drops four times daily. Before and after two months treatment period with composition according to example I.2., the patients were checked objectively in order to score the severity of conjunctival livid hyperemia and the amount of exudate. Subjectively the patients were asked to assess the symptoms of itching, burning and photophobia. Objective and subjective assessments were scored by means of visual analog scales.
# [4] = system: chronic allergic conjunctivitis; test: double blind clinical study in chronic allergic conjunctivitis (Example IX); assay type: in vivo, patients
# Procedure: The trial was performed in double blind. The objective was to determine the effects of the composition according to Example I.2.: an ophthalmic solution at 4 % concentration, on the ocular symptoms and inflammatory conjunctival signs of patients suffering from chronic allergic conjunctivitis, compared with the sodium cromoglycate in ophthalmic solution at 2 % concentration used in therapy. The results of this comparative study concern 33 patients, of both sexes, who were distributed randomly into two groups: received the composition according to Example I.2. during 2 weeks at the rate of 1 drop in each eye to be treated, 3 to 5 times daily. These patients then received sodium cromoglycate in eye-drops at 2 % concentration (commercial eye-drops) during two supplementary weeks and at the same dosage, 16 patients received the same eye-drops in the reverse order and for the same lengths of time. The random assortment of the patients ensured good homogeneity in the distribution between the two treatment groups, not only in respect of the clinical characteristics, but also in respect of the duration of administration of the eye-drops under trial, and the use of concomitant treatments.
# [5] = system: mast cells of the nasal mucosa; test: mast cell degranulation of nasal mucosa of guinea pig by instillation of 48/80; assay type: in vivo
# Procedure: The test is based on the determination by microscopy of the number of granulated mast cells per unit area in the nasal mucosa of the guinea pig, and on the study of the administration of a histamine releasing substance --48/80--on this number of mast cells. Guinea pigs receive in each nostril, twice daily during 3 days. 0.1 ml of the product under investigation, 15 minutes before the nasal instillation of 0.1 ml of 48/80 in solution at 2 % concentration; the animals are sacrificed 1 hour after the last instillation.
# After sacrifice, the nasal mucosa is removed, then fixed and stained with toluidine blue to allow selective staining of the granulated mast cells. For each animal, the mast cells contained in 100 microscopic fields are counted by microscopy.
# [6] = system: allergic conjunctivitis; test: trial on allergic conjunctivitis in the rabbit; assay type: in vivo; settings: n = 12 eyes
# From the text: The experimental protocol has been established according to works by OKADA et al. (OKADA-SHIMADA, Invest. Ophthalmol. Vis. Sc. 1980, 19 2, 176-181).
# The model of allergic conjunctivitis used consists in effecting a conjunctival immunization in rabbits by local injection of rabbit antibodies to bovine gammaglobulins. The conjunctivitis is then triggered by the inflammation of allergic origin thus provoked are observed as an increase in the weight of the conjunctiva, and as enhancement of the conjunctival capillary permeability to iodine-125 labeled rabbit serum albumin injected intravenously before the injection of the antigen.
# Two hours after the injection of bovine gammaglobulins, the rabbits are sacrificed, and then the eyes are removed and the conjunctiva dissected out, weighed and submitted to radioactive counting.
# Three parameters are recorded:
# the weight of the conjunctiva,
# the blood conjunctiva permeability index, evaluated as the ratio of the radioactivity of 1 mg of conjunctiva to that of 1 ml of blood,
# the quantity of labeled serum albumin recovered in the conjunctiva.
# To evaluate the protective effect of the preparation under investigation, several batches of six rabbits are formed, which receive 6 instillations of 2 eye-drops in each eye daily for 3.5 days before the injection of labeled serum albumin.
# One batch of six normal rabbits, not tested and not subjected to provacation of the allergy, is also formed ("blank" batch), as well as a batch of six control rabbits receiving instillations of physiological serum before the triggering of the conjunctivitis ("conjunctivitis controls").
# [7] = system: perennial allergic rhinitis; test: double-blind cross-over clinical study in perennial allergic rhinitis (Example XIII); assay type: in vivo, patients; settings: 2 sprays per nostril, 5 times per day, 2 weeks
# Procedure: The aim of the present study was to determine the efficacy and tolerance of the composition according to example II.2., in the treatment of allergic rhinitis. For this purpose, a double-blind trial was undertaken versus a reference drug: disodium Cromoglycate in a 2 % nasal solution. The study involved 34 patients, suffering from perennial allergic rhinitis. Each patient was included in a cross-over treatment protocol, according to which the two drugs compared were administered successively during 2 treatment periods of 2 weeks each, at the dose of 2 sprays per nostril, 5 times per day.
smiles,measurement,setting,value
CC(=O)N[C@@H](CC(=O)O)C(=O)N[C@@H](CCC(=O)O)C(=O)O [sodium salt] (Ac-Asp-Glu-OH),acute tolerance on ciliary movement versus criterion (not more than 50% decrease after twenty minutes),[1],Analogous results
"CC(=O)N[C@@H](CC(=O)O)C(=O)N[C@@H](CCC(=O)O)C(=O)O [NAAGA, N-acetyl-(alpha, beta)-aspartyl glutamic acid] (Ac-Asp-Glu-OH)",metabolism,[2],rapidly and extensively metabolized
O=C(O)c1cc(=O)c2c(OCC(O)COc3cccc4oc(C(=O)O)cc(=O)c34)cccc2o1 [sodium cromoglycate],frequency of marginal objective control,[3],33%
same,frequency of marginal subjective control,[3],37%
same,patients with improvement in the ocular symptoms,"[4]; 1 drop in each eye 3 to 5 times daily, 2 weeks per product, 33 patients",more than 65%
same,preferences expressed by the patients,[4]; cross-over comparison of the two eye-drops,33%
same,Average number of granulated mast cells per microscopic field,"[5]; 0.1 ml in each nostril twice daily during 3 days, 15 minutes before 48/80 at 2 %",4.6
same,protective effect inferior to that of NAAGA by,"[5]; 2 % concentration (commercial solution), same experimental condition",about 40%
same,Quantity of serum albumin in the conjunctiva,"[6]; 6 instillations of 2 eye-drops in each eye daily for 3.5 days, mean ± spread",34.5 ± 13.6 µg
same,Weight of the conjunctiva,[6],411 ± 64 mg
same,Blood-conjunctiva index (× 100),"[6]; ratio of radioactivity of 1 mg of conjunctiva to that of 1 ml of blood, × 100",4.7 ± 1.8
same,Nasal and systemic tolerance,[7],good and no side-effects were seen
same,patients with results of treatment considered to be good,[7],61%
